Several values for one entry are separate records, joined by “and”; a condition that tells them apart may be missing. Equal entries are not always repeated.
How the values were obtained:
[1] = tested on: tyrosinase; experiment: Tyrosinase inhibition (L-Dopa, dopachrome absorbance at 475 nm, procedure of Manson and Peterson); assay type: biochemical, mushroom
Experimental: This experiment was conducted according to the procedure of Manson and Peterson. A 0.5 ml L-Dopa solution (0.03% in pH6.8 PBS) was added to 0.5 ml of a test liquid, and incubated for 5 minutes at 25° C. After which, a 0.5 ml of tyrosinase solution (obtained from a mushroom) was added and the mixture was further incubated for 5 minutes at 25° C. […] Kojic acid was used for a positive control test.

[2] = Skin blood flow in rats after topical application, measured with a Laser Doppler Flowmeter; assay type: in vivo, Wistar male rats; details: rat, measured after 20 minutes
Experimental: Wistar male rats (180 to 200 g weights) were employed as experimental animals. The quantity of the skin blood in this experiment was measured with a Laser Doppler Flowmeter (PF2B, Perimed). The backs of rats were sheared. A day later, the rats were anesthetisized with urethane (1 g/Kg) and a quantity of blood flow was measured. This quantity was defined as a normal flow.
Immediately after the measurement of the normal flow, a group of rats were treated with topical application of 25 μl of test liquid in 50% ethanol solution and a group of rats were treated with topical application of 50% ethanol solution as a control. The skin blood flow was measured at 20 minute, 40 minute and 60 minute intervals. MeOH extract from Calanthe discolor Lindl. (CDM-ext: 0.5% and 2.0%), Calanthoside A (0-20%), and indilbin (0.2%) were tested, and the results for the extract are shown in Table 1.
The ability of Calanthoside B to increase skin blood flow can be used to promote hair growth.

SMILES: O=c1cc(CO)occ1O [Kojic Acid, Kojic acid]
- % Inhibition ([1]; concentration 5 (μM)): 32.5% and 28.2% and 23.9%
- % Inhibition ([1]; concentration 20 (μM)): 66.0% and 62.2% and 59.3%
- % Inhibition ([1]; concentration 50 (μM)): 82.7% and 80.3% and 78.6%
- anti-tyrosinase activity (result in words) ([1]; summary of Table 2): strong anti-tyrosinase activity

SMILES: OCC1O[C@@H](Oc2c(S[C@@H]3OC(CO)[C@@H](O)C(O)C3O)[nH]c3ccccc23)C(O)C(O)[C@@H]1O (stereo partly drawn) [Calanthoside B, 2-S-β-D-glucopyranosyl-3-O-β-D-glucopyrannosyl-2-mercaptoindole]
- skin blood flow (result in words) ([2]; 0.2%): increases skin blood flow

SMILES: OCC1O[C@@H](OCC2O[C@@H](Oc3c[nH]c4ccccc34)C(O)C(O)[C@@H]2O)C(O)C(O)[C@@H]1O (stereo partly drawn) [Calanthoside A, 3-O-β-D-glucopyranosyl (1-6)-β-D-glucopyranosylindole]
- % Inhibition ([1]; concentration 50 μg/ml): 38.6%
- % Inhibition ([1]; concentration 200 μg/ml): 65.9%
- skin blood flow (result in words) ([2]; Calanthoside A (0-20%)): increases skin blood flow
